Measured values as given in patent US8946225B2, “Derivatives of 2H pyridazin-3-ones, their preparation and their use as SCD-1 inhibitors” (Pierre Fabre Medicament, priority 2009, dated 2015).

Assays:
SCD-1 = target: T1, SCD-1 (Homo sapiens, UniProt O00767); assay: Human enzymatic activity of SCD-1 from microsomes of HepG2 cells (conversion of [14C] stearic acid to oleic acid, HPLC); format: biochemical; settings: microsomal fraction of HepG2 cells, 62 μM stearic acid, 20 minutes at 37° C., vs vehicle 0.1% DMSO; read-out: HSCD-1 (HEPG2) IC50
T1 construct: addition of 125 μg of microsomal fraction of HepG2 cells; host or cells: HepG2 human hepatocarcinoma cells (microsomal fraction)
T1 sequence (O00767 1-359): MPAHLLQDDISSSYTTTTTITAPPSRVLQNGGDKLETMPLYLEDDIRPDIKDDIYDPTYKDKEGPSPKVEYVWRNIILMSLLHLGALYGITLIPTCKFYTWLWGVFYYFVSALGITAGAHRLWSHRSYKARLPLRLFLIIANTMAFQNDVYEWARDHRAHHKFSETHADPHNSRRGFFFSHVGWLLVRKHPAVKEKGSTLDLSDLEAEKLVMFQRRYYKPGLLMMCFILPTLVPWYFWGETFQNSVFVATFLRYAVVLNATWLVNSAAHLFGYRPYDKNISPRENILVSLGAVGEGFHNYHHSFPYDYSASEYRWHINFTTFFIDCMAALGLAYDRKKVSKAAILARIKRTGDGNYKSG
Procedure: In vitro: Human enzymatic activity of SCD-1 from microsomes of HepG2 cells after treatment with the inhibitor compounds (% inhibition).
HepG2 cells of human hepatocarcinoma (ATCC, HB-8065) are cultured at confluence then trypsinated. The cell residue is solubilized in 10 mM Tris buffer (pH 7.4) sucrose (250 mM) DTT (1 mM) then the cells are lysed by sonication. The microsomes are obtained after centrifuging at 10,000 g for 20 minutes at 4° C. followed by centifrugation of the supernatant at 100,000 g for 60 minutes at 4° C. The residue is solubilized in 10 mM Tris buffer (pH 7.4) sucrose (250 mM) at 4° C. and the microsomal proteins are assayed and stored at −196° C. (liquid nitrogen).
The enzymatic reaction measures the conversion of stearic acid (C18:0 fatty acid) into oleic acid (C18:1 fatty acid) by SCD-1. The enzymatic reaction is initiated by the addition of 125 μg of microsomal fraction of HepG2 cells to tubes (total reaction volume of 500 μl) containing 62 μM stearic acid (45 μM stearic acid and 17 μM [^14C] stearic acid) in 100 mM phosphate buffer (pH 7.16) with 7.2 mM ATP, 0.54 mM CoA, 6 mM MgCl2, 0.8 mM NADH and the inhibitor compound or vehicle (0.1% DMSO). The tubes are incubated for 20 minutes at 37° C. then the enzymatic reaction is halted by the addition of KOH (12%) and saponification for 30 minutes at 80° C. After acidification (3N HCl), the fatty acids are extracted twice with ethyl ether, evaporated under nitrogen before being solubilized in methanol/dichloromethane (3:1). The reaction product (C18:1) is separated from the reaction substrate (C18:0) by HPLC (Perkin Elmer, C18 reverse phase column) coupled with an in-line radioactivity detector (FlowOne). Enzymatic activity is measured in picomoles of stearic acid converted to oleic acid per minute and per mg of protein. For each inhibitor compound, an IC50 value is determined, compared with the reference enzymatic activity (vehicle 0.1% DMSO). Sterculic acid is the reference inhibitor compound (Gomez F. E., Bauman D. E., Ntambi J. M., Fox B. G. Effects of sterculic acid on stearoyl-CoA desaturase in differentiating […] adipocytes. Biochem Biophys Res Commun. 300 316-326 (2003).

IC50 (SCD-1) [nM]	melting point [°C]	SMILES
300 to 1000	64	Cn1nccc(NCC(=O)N2CCC(CNc3cc(C(F)(F)F)ccc3Cl)CC2)c1=O [Example 32, 4-(2-{4-[(2-Chloro-5-trifluoromethyl-phenylamino)-methyl]-piperidin-1-yl}-2-oxo-ethylamino)-2-methyl-2H-pyridazin-3-one]
300 to 1000	154	Cn1nccc(/C=C/C(=O)N2CCC(Oc3cc(C(F)(F)F)ccc3Cl)CC2)c1=O [Example 36, 4-{(E)-3-[4-(2-Chloro-5-trifluoromethyl-phenoxy)-piperidin-1-yl]-3-oxo-propenyl}-2-methyl-2H-pyridazin-3-one]
100 to 1000	154	Cn1nccc(NC(=O)N2CCC(Oc3cc(Cl)c(Cl)cc3Cl)CC2)c1=O [Example 70, 4-(2,4,5-trichloro-phenoxy)-piperidine-1-carboxylic acid (2-methyl-3-oxo-2,3-dihydro-pyridazin-4-yl)-amide]
10 to 100	101	Cn1nccc(NC(=O)N2CCC(Oc3cccc(C(F)(F)F)c3)CC2)c1=O [Example 58, 4-(5-trifluoromethyl-phenoxy)-piperidine-1-carboxylic acid (2-methyl-3-oxo-2,3-dihydro-pyridazin-4-yl)-amide]
30	124	Cn1nccc(NC(=O)N2CCC(Oc3cc(Br)ccc3Cl)CC2)c1=O [Example 63, 4-(2-chloro-5-bromo-phenoxy)-piperidine-1-carboxylic acid (2-methyl-3-oxo-2,3-dihydro-pyridazin-4-yl)-amide]
30 to 100	137	Cn1nccc(NCC(=O)N2CCC(Oc3cc(F)c(F)cc3Br)CC2)c1=O [Example 5, 4-{2-[4-(2-Bromo-4,5-difluoro-phenoxy)-piperidin-1-yl]-2-oxo-ethylamino}-2-methyl-2H-pyridazin-3-one]
10 to 100	222	O=C(CNc1ccn[nH]c1=O)N1CCC(Oc2cc(C(F)(F)F)ccc2Cl)CC1 [Example 40, 4-{2-[4-(2-Chloro-5-trifluoromethyl-phenoxy)-piperidin-1-yl]-2-oxo-ethylamino}-2H-pyridazin-3-one]
10 to 100	155	Cn1nc(NC(=O)N2CCC(Oc3cc(C(F)(F)F)ccc3Cl)CC2)ccc1=O [Example 74, 4-(2-Chloro-5-trifluoromethyl-phenoxy)-piperidine-1-carboxylic acid (1-methyl-6-oxo-1,6-dihydro-pyridazin-3-yl)-amide]
~1000	124	Cc1ccccc1OC1CCN(C(=O)Nc2ccnn(C)c2=O)CC1 [Example 59, 4-(2-methyl-phenoxy)-piperidine-1-carboxylic acid (2-methyl-3-oxo-2,3-dihydro-pyridazin-4-yl)-amide]
100 to 1000	142	Cc1ccc(F)cc1OC1CCN(C(=O)Nc2ccnn(C)c2=O)CC1 [Example 68, 4-(5-fluoro-2-methyl-phenoxy)-piperidine-1-carboxylic acid (2-methyl-3-oxo-2,3-dihydro-pyridazin-4-yl)-amide]
30 to 100	183	Cn1nccc(NCC(=O)N2CCC(COc3cc(C(F)(F)F)ccc3Cl)C2)c1=O (stereo not shown) [Example 34, 4-{2-[3-(2-Chloro-5-trifluoromethyl-phenoxymethyl)-pyrrolidin-1-yl]-2-oxo-ethylamino}-2-methyl-2H-pyridazin-3-one]
100 to 1000	60	COc1cnn(C)c(=O)c1NCC(=O)N1CCC(Oc2cc(C(F)(F)F)ccc2Cl)CC1 [Example 51, 4-{2-[4-(2-Chloro-5-trifluoromethyl-phenoxy)-piperidin-1-yl]-2-oxo-ethylamino}-5-methoxy-2-methyl-2H-pyridazin-3-one]
10 to 100	136	Cn1ncc(NC(=O)N2CCC(Oc3cc(C(F)(F)F)ccc3Cl)CC2)cc1=O [Example 73, 4-(2-Chloro-5-trifluoromethyl-phenoxy)-piperidine-1-carboxylic acid (1-methyl-6-oxo-1,6-dihydro-pyridazin-4-yl)-amide]
100 to 1000	162	Cn1nccc(NCC(=O)N2CCC(Oc3cc([N+](=O)[O-])ccc3Cl)CC2)c1=O [Example 9, 4-{2-[4-(2-Chloro-5-nitro-phenoxy)-piperidin-1-yl]-2-oxo-ethylamino}-2-methyl-2H-pyridazin-3-one]
300 to 1000	169	Cn1nccc(NCC(=O)N2CCC(Oc3ccc(Cl)c(Cl)c3)CC2)c1=O [Example 10, 4-{2-[4-(3,4-Dichloro-phenoxy)-piperidin-1-yl]-2-oxo-ethylamino}-2-methyl-2H-pyridazin-3-one]
100 to 1000	176	Cc1ccc(F)cc1OC1CCN(C(=O)CNc2ccnn(C)c2=O)CC1 [Example 14, 4-{2-[4-(5-Fluoro-2-methyl-phenoxy)-piperidin-1-yl]-2-oxo-ethylamino}-2-methyl-2H-pyridazin-3-one]
1000 to 10000	163	Cn1ncc(OCC(=O)N2CCC(Oc3cc(Cl)ccc3Cl)CC2)cc1=O [Example 25, 5-{2-[4-(2,5-Dichloro-phenoxy)-piperidin-1-yl]-2-oxo-ethoxy}-2-methyl-2H-pyridazin-3-one]
10 to 100	104	Cc1ccc(C(C)C)cc1OC1CCN(C(=O)Nc2ccnn(C)c2=O)CC1 [Example 57, 4-(2-methyl-5-isopropyl-phenoxy)-pipéridine-1-carboxylic acid (2-methyl-3-oxo-2,3-dihydro-pyridazin-4-yl)-amide]
100 to 1000	142	Cn1nccc(NCC(=O)N2CCC(Oc3ccccc3Cl)CC2)c1=O [Example 7, 4-{2-[4-(2-Chloro-phenoxy)-piperidin-1-yl]-2-oxo-ethylamino}-2-methyl-2H-pyridazin-3-one]
100 to 1000	175	Cn1nccc(NCC(=O)N2CCC(Oc3cc(F)cc(C(F)(F)F)c3)CC2)c1=O [Example 3, 4-{2-[4-(3-Fluoro-5-trifluoromethyl-phenoxy)-piperidin-1-yl]-2-oxo-ethylamino}-2-methyl-2H-pyridazin-3-one]
100	159	Cn1nccc(NCC(=O)N2CCC(Oc3cc(F)ccc3Cl)CC2)c1=O [Example 8, 4-{2-[4-(2-Chloro-5-fluoro-phenoxy)-piperidin-1-yl]-2-oxo-ethylamino}-2-methyl-2H-pyridazin-3-one]
30 to 100	116	Cn1nccc(NC(=O)N2CCC(Oc3cc(F)ccc3Cl)CC2)c1=O [Example 53, 4-(2-Chloro-5-fluoro-phenoxy)-piperidine-1-carboxylic acid (2-methyl-3-oxo-2,3-dihydro-pyridazin-4-yl)-amide]
100 to 1000	108	Cc1ccc(C)c(OC2CCN(C(=O)Nc3ccnn(C)c3=O)CC2)c1 [Example 55, 4-(2,5-dimethyl-phenoxy)-piperidine-1-carboxylic acid (2-methyl-3-oxo-2,3-dihydro-pyridazin-4-yl)-amide]
